Results on 14 compounds are retold here after PubChem BioAssay AID588757 (Broad Institute, 2011).

One may read the AC50 as the concentration giving half of the maximal activity seen.

Calls of active or inactive are those of the source.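 Rule for the calls: active = compounds whose fitted half-maximal concentration is at most ten times their top valid tested dose; inconclusive = flat fit showing moderate inhibition, or poor fit quality; inactive = the rest.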

Chain of Aurora kinase B (Homo sapiens) (Q96GD4 whole entry, looked up): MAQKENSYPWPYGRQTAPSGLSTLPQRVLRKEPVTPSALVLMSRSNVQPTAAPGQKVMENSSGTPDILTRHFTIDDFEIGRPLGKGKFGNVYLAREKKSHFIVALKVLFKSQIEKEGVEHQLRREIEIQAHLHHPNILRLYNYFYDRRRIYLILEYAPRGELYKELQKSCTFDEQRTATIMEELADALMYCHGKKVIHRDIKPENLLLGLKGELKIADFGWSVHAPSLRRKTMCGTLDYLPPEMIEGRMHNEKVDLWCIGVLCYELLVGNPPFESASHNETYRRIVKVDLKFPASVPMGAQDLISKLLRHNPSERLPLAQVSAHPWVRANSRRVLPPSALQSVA

One assay addresses Aurora kinase B (Homo sapiens) (UniProt Q96GD4). In words: Aurora B kinase inhibition counter-screen, dose response, counter-screen for STK33 inhibitor project, biochemical, scintillation, dry powder (AID 588757). The settings on record: ATP at Km, gamma-32P-ATP, 40 min room temperature, P30 filtermat scintillation counting.
Regarding `Cc1ncc(/C=C2\C(=O)Nc3ccccc32)[nH]1`, the AC50 is 346 nM.
Same read-out and setting: then `CC(C)n1cnc2c(Nc3cccc(Cl)c3)nc(NCCO)nc21`, with 1470 nM; and `Oc1ccc(Nc2nc(-c3ccccc3O)nc3ccccc23)cc1`, with 142 nM; and `CCOc1ccccc1C(=O)Nc1cc(Cl)ccc1O`, with > 3000 nM (inactive).
Same read-out and setting: in the case of `O=C(Nc1ccccc1-c1ccccc1)c1ccc(Br)o1` it was 1660 nM; in that of `CCCn1c(NC(=O)c2cccc(S(=O)(=O)N3CCCC3)c2)nc2ccccc21`, 170 nM.
Still for that read-out and setting: then `Nc1nc(-c2cc(O)ccc2[N+](=O)[O-])cc(-c2ccccc2)c1[N+](=O)[O-]`, with 12.6 nM.

The assay is the same for the next values; noted with them: ATP at Km, gamma-32P-ATP, 40 min room temperature, P30 filtermat scintillation counting, at 3 µM (top of the series).
Turning to `O=S(=O)(c1cccc2cnccc12)N1CCCNCC1`, the “activity change, negative = inhibition” value is “inactive”.
The same measure, in the same setting: then `COc1cc(/C=C2\SC(N)=NC2=O)ccc1O`, with “inactive”.
Same read-out and setting: then `COc1cc(C(=O)NC2CCN(C)CC2)ccc1Nc1ncc2c(n1)N(C1CCC(O)CC1)CCC(=O)N2C` (centres undefined), with “inactive”; and `COC(=O)c1ccc(COc2ccccc2/C=C/C(=O)c2ccc(OCC(=O)O)cc2)cc1`, with “inactive”.
On the same count and under the same terms, in the case of `O=C(Nc1ccccc1-c1nc2ccccc2[nH]c1=O)c1cccs1` it was “inactive”; in that of `CC(=O)N(C)c1ccc(N=Cc2c(O)ccc3ccccc23)cc1`, “inactive”.
In the case of `COc1cc(/C=N/n2c(-c3ccccc3)n[nH]c2=S)ccc1O`, the “activity change, negative = inhibition” value was “inactive”.
